For assay [1], the system named is T. cruzi (Y strain) in male Swiss mice. Nature of the assay: Mouse model of acute T. cruzi infection (Y strain). In kind it is in vivo. As to conditions: for parasite DNA amplification in blood (qPCR): 77 dpi, heart puncture, derivatives 25 mg/kg/day, Bz 100 mg/kg/day, 5 days oral, limit of detection 0.47 eq par/mL; for protection against loss of weight induced by acute infection: 25 mg/kg/day oral, 5 days; for reduction of parasitemia: gavage once a day, 5 consecutive days, 25 mg/kg/day, from parasitemia onset, p < 0.05. Here is the method:
Thus, a proof-of-concept study was performed in T. cruzi-infected mice. The infected animals were treated (gavage, once a day) for 5 consecutive days with the derivatives (25 mg/kg/day) or Bz (100 mg/kg/day), starting drug administration at the parasitemia onset, usually on day 5 dpi, following doses and protocols already established for the other nucleoside derivatives.
The synthesis and characterization of FH11706, FH10714 [46] and FH8513 [19] were previously reported. Benznidazole (Bz) was purchased from Laboratório Farmacêutico do Estado de Pernambuco (Brazil). […] For in vivo assays, Bz was formulated using 3% Tween 80 in distilled water and the nucleoside analogues in 10% (v/v) EtOH, with 1.1 mM aqueous citrate buffer pH 3.2 and dosed according to animal body weight.
Male Swiss Webster mice (18−20 g; 4−5 weeks of age) were obtained from the Institute of Sciences and Technologies in Biomodels (ICTB-FIOCRUZ), housed with a maximum of 5 animals per cage and kept in a specific pathogen-free (SPF) room at 20−24 °C under a 12 h light and 12 h dark cycle. All animals received sterilized water and food ad libitum. The animals were acclimatized for 7 days before the experiments. To detect possible toxic events, nucleoside analogues and Bz were orally given to non-infected Swiss male mice (n = 2) for 5 consecutive days, with a fixed dose of 50 mg/kg (0.1 mL). On day 5, all animals were euthanized to inspect toxic and subtoxic symptoms. For a proof-of-concept study, animals were infected by i.p. administration of 10^4 bloodstream trypomastigotes (Y strain), and drug administration started at the onset of parasitemia (6 dpi), only using mice with detectable parasitemia. Control mice groups were age-matched and housed under identical conditions. The following experimental groups were used (3 mice per group): untreated (infected vehicle-treated control) and treated (infected and treated with derivatives or with benznidazole). The derivatives and Bz were given orally (gavage) for five consecutive days at 25 mg/kg and 100 mg/kg, respectively, once a day. Parasitemia levels in T. cruzi assays were individually checked by light microscopic counting of parasites in 5 μL of blood, as described. For blood qPCR analysis, 500 µL of blood was diluted in a 1:2 volume of guanidine solution and heated for 60 s in boiling water, followed by DNA purification using High Pure PCR Template Preparation Kit (Roche Applied Science) and quantitative real-time multiplex PCR assays. TaqMan probes were used for quantification of both T. cruzi satellite nuclear DNA and internal amplification control (IAC), as described in Duffy et al. (2013), using the following primer and prober sets: Cruzi1 5′-[…]-3′ (750 nM), Cruzi2 5′-[…]-3′ (750 nM), Cruzi3 FAM-5′-CACACACTGGACACCAA-3′-NFQ-MGB (50 nM), IAC Fw 5′-[…]-3′ (100 nM), IAC Rv 5′-[…]-3′ (100 nM) and IAC Tq 5′-VIC-AGCATCTGTTCTTGAAGGT-NFQ-MGB-3′ (50 nM). The cycling conditions were a first step of 10 min at 95 °C, followed by 40 cycles at 95 °C for 15 s and 58 °C for 1 min. The amplifications were carried out in a Quantstudio 3 real-time PCR system (Applied Biosystems), with the threshold set at 0.02 in all runs. Standard curves were constructed for absolute quantification through the serial dilution of total DNA, ranging from 10^5 parasite equivalent to 1 parasite equivalent per mL of blood, obtained with a negative blood sample in guanidine-EDTA. Parasite load was expressed as equivalent of parasite DNA per mL of blood.
For orientation: Quantitative PCR measures a nucleic acid by following its amplification.

For assay [2], the system named is intracellular forms of T. cruzi (Y strain) in 2D H9C2. As to the kind of experiment: Activity against T. cruzi (Y strain) infection of H9C2 monolayers (2D). Format: cell-based, Trypanosoma cruzi. The note with it: 10 µM, seven days of incubation, 95% confidence interval in brackets. The source says:
L929 cell lines were used to evaluate the effect of the nucleoside derivatives on the cellular viability of mammalian host cells and to assess their activity against intracellular forms of T. cruzi (Tulahuen strain expressing E. coli β-galactosidase gene, DTU VI) as reported. 2D and 3D culture systems of rat cardiomyoblast cell lines (H9C2(2-1)) were used to evaluate cardiotoxicity and to test the derivatives’ activity on intracellular forms (Y strain, DTU II). In all assays, the cell cultures were maintained at 37 °C under an atmosphere of 5% CO2.
Bloodstream trypomastigotes of the Y strain (DTU II) were obtained by cardiac puncture of infected Swiss Webster mice on the parasitemia peak to perform drug sensitivity assays. Trypomastigote forms of the Tulahuen-β gal strain were collected from the supernatant of previously infected L929 cell cultures (host/parasite cell ratio 10:1). The intracellular forms T. cruzi were studied by the infection of L929 and H9C2 (2D and 3D) cell cultures infected for 48 and 24 h with trypomastigotes of Tulahuen-β gal and Y strains, respectively. The Leishmania mexicana-Cas9 T7 strain (LmexCas9) was derived from L. mexicana WT promastigotes by expression of the Streptococcus pyogenes Cas9 nuclease gene ‘Cas9′ and maintained on 32 μg/mL hygromycin [51]. This strain and the derived strains Cas9^ΔNT1 and Cas9^ΔNT1+TcrNT2 were cultured in HOMEM medium supplemented with 10% of FBS and 1% Penicillin-Streptomycin antibiotic in unvented flasks at 25 °C [52]. The Cas9^ΔNT1 strain is identical to Cas9 except that the LmexNT1.1/NT1.2 locus encoding the L. mexicana adenosine/ pyrimidine transporters was excised using Cas9 [17, 40]. Cas9^ΔNT1+TcrNT2 is the further modification of that strain by the expression of the T. cruzi nucleoside transporter 2 (TcrNT2) gene in it, using the vector pNUS-HcN [53]. Appropriate antibiotics were added for the selection and maintenance of transfectants.
In an initial step, nucleoside derivatives were assayed against intracellular forms of Tulahuen-β gal strain in L929 cell lines. Assays were performed in sterile 96-well microtiter plates with 4 × 10^3 cells/well and 4 × 10^4 parasites/well (host/parasite cell ratio 1:10). […] Parasite burden was analyzed by adding the substrate CPRG (chlorophenol red ß-D-galactopyranoside) followed by measurements (spectrophotometrically) at 570 nm. The results were expressed as percentage of reduction in parasite growth compared to untreated cells, and EC50 values were calculated. […] After seven days of treatment, the cultures were fixed, stained with Giemsa, and 200 cells were quantified by light microscopy. The results were expressed as % of reduction in parasite burden. […]

Consider four molecules from publication PMC9695592, “Phenotypic Evaluation of Nucleoside Analogues against Trypanosoma cruzi Infection: In Vitro and In Vivo Approaches” (Molecules, 2022).

Molecules are shown by their SMILES.

For `O=C(Cn1ccnc1[N+](=O)[O-])NCc1ccccc1` [Bz, Benznidazole, reference compound], the “parasite DNA amplification in blood (qPCR)” value (“parasite DNA amplification” below) in assay [1] is given as 0.187 ± 0.082 eq par/mL. Also, the “% of Death Rate by Light Microscopy Quantification 2D” value (“% of Death Rate” for short) in assay [2] is reported as 100%.
In the case of `Nc1ncnc2c1c(-c1ccc(Cl)c(Cl)c1)cn2[C@@H]1O[C@H](CO)C[C@H]1O` [FH8513, 7-(3,4-dichlorophenyl)-3′-deoxytubercidin], in assay [1], the “protection against loss of weight induced by acute infection” value was “strongly protected”, the “parasite DNA amplification” value stood at 0.287 ± 0.017 eq par/mL and the reduction of parasitemia was 99.48%. Besides, in assay [2], the “% of Death Rate” value is reported as 99.14 (97.9 to 100) %.
Consider `Nc1ncnc2c1c(-c1ccc(Cl)c(F)c1)cn2[C@@H]1O[C@H](CO)[C@@H](O)[C@H]1O` [FH10714, 7-(3-fluoro,4-chlorophenyl)tubercidin], for which, in assay [1], the “parasite DNA amplification” value turned out to be 0.046 ± 0.038 eq par/mL and the reduction of parasitemia amounted to 99.58%. Moreover, the “sterile (parasitological) cure in mice” value in assay [1] (oral once a day for 5 days (derivatives 25 mg/kg), blood qPCR) is reported as “incapable to promote a parasitological cure”. The “% of Death Rate” value in assay [2] is recorded as 100%.
Turning to `Nc1ncnc2c1c(-c1ccc(F)c(F)c1)cn2[C@@H]1O[C@H](CO)[C@@H](O)[C@H]1O` [FH11706, 7-(3,4-Difluorophenyl)tubercidin], in assay [1], the “protection against loss of weight induced by acute infection” value is listed as “strongly protected”, the “parasite DNA amplification” value was found to be 0.038 ± 0.016 eq par/mL and the reduction of parasitemia amounted to 98.4%. The “% of Death Rate” value in assay [2] was 99.25 (98.83 to 99.67) %.
